The experiment has as its target T1, LRRK2 (Homo sapiens, UniProt Q5S007, G2019S).
T1 construct: purchased Invitrogen PV4882
Nature of the experiment: In Vitro LRRK2 LabChip Assay (LRRK2 Ki). In kind it is biochemical. Particulars: Table 5 compounds (formula I).
T1 sequence (Q5S007 whole entry G2019S): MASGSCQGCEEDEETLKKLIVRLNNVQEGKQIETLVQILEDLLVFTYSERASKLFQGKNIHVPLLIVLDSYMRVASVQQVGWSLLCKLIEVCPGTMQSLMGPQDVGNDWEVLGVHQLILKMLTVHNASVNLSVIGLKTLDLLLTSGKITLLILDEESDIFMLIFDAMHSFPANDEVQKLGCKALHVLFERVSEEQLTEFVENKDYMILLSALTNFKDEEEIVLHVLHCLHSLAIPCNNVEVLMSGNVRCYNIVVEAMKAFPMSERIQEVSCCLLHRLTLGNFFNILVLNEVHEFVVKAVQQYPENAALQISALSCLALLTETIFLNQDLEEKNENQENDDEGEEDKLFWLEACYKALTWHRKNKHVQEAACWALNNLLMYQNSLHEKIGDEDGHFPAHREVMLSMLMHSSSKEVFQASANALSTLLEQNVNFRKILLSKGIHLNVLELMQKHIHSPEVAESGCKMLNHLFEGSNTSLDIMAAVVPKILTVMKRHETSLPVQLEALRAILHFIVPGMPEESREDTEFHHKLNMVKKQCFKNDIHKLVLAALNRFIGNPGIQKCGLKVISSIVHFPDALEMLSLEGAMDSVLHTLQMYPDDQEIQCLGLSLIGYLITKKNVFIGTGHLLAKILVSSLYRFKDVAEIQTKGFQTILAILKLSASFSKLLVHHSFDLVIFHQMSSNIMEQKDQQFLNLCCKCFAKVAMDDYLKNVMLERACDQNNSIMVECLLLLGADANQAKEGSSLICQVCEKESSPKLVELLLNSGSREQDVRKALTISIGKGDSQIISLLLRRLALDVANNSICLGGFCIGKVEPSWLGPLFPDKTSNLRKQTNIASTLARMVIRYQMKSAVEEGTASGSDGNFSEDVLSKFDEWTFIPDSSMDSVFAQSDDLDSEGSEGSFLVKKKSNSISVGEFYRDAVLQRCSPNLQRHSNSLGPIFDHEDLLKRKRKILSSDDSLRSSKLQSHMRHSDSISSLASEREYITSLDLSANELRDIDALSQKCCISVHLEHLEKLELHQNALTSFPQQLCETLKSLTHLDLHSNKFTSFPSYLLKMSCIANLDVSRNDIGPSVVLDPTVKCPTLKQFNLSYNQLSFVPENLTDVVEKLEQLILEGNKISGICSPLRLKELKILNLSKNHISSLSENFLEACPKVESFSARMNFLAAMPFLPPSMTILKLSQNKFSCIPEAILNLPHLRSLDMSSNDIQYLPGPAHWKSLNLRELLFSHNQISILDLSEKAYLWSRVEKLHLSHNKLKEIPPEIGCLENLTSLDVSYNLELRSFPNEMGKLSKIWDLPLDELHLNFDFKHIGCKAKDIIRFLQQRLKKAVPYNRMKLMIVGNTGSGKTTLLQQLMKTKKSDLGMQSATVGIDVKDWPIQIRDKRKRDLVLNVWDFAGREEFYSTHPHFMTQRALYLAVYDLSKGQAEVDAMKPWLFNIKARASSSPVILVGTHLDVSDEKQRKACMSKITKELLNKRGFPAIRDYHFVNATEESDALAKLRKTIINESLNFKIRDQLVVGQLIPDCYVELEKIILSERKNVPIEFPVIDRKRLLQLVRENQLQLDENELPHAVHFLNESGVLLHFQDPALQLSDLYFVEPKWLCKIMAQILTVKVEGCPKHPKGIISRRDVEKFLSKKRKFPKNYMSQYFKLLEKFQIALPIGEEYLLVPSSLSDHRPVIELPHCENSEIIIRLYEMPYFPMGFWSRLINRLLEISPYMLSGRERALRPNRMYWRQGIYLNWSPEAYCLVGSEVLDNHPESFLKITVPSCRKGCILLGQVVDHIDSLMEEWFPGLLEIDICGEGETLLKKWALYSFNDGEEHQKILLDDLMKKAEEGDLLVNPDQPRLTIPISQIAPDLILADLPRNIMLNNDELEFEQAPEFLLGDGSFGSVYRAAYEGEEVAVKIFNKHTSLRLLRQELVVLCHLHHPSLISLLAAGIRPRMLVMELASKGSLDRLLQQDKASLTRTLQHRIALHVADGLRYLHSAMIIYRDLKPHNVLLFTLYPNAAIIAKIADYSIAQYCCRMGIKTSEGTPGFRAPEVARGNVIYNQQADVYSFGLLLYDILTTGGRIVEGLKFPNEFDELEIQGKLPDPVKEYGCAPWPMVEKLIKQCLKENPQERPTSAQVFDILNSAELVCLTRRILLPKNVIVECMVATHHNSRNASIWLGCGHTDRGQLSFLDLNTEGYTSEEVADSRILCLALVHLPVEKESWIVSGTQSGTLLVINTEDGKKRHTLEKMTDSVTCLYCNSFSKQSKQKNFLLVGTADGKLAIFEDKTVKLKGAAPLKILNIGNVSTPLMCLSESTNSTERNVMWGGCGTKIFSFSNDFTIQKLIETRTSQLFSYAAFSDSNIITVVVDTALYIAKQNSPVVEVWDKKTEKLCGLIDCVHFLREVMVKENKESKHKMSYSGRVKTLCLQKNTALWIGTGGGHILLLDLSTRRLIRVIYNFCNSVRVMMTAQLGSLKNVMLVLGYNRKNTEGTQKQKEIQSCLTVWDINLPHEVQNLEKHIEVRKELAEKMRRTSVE
`CNc1nc(Nc2ccc(C(=O)N3CCOCC3)c(F)c2F)ncc1C(F)(F)F` [Compound 12, [2,3-Difluoro-4-(4-methylamino-5-trifluoromethyl-pyrimidin-2-ylamino)-phenyl]-morpholin-4-yl-methanone] yielded an inhibition constant (Ki) of 13.5 nM.

`CNc1nc(Nc2cc(OC)c(C(=O)N3CCN(C4COC4)CC3)cc2Cl)ncc1C(F)(F)F` [Compound 23, [5-Chloro-2-methoxy-4-(4-methylamino-5-trifluoromethyl-pyrimidin-2-ylamino)-phenyl]-(4-oxetan-3-yl-piperazin-1-yl)-methanone] displayed a Ki of 4.09 nM.

`CNc1nc(Nc2cc(F)c(C(=O)N3CCCC3)cc2OCF)ncc1C(F)(F)F` [Compound 95, [2-Fluoro-5-fluoromethoxy-4-(4-methylamino-5-trifluoromethyl-pyrimidin-2-ylamino)-phenyl]-pyrrolidin-1-yl-methanone] showed a Ki of 6.93 nM.

In turn, `COc1cc(C(=O)N2CCOCC2)c(OC)cc1Nc1ncc(Cl)c(OC)n1` [Compound 87, [4-(5-Chloro-4-methoxy-pyrimidin-2-ylamino)-2,5-dimethoxy-phenyl]-morpholin-4-yl-methanone] returned a Ki of 5.5 nM.

For the molecule `CNc1nc(Nc2cc(C)c(C(=O)N3CCOCC3)cc2C)ncc1C(F)(F)F` [Compound 130, [2,5-Dimethyl-4-(4-methylamino-5-trifluoromethyl-pyrimidin-2-ylamino)-phenyl]-morpholin-4-yl-methanone], affinity was put at a Ki of 4.74 nM.

In turn, `CCNc1nc(Nc2cc(OCF)c(C(=O)N3CCOCC3)cc2Cl)ncc1C(F)(F)F` [Compound 72, [5-Chloro-4-(4-ethylamino-5-trifluoromethyl-pyrimidin-2-ylamino)-2-fluoromethoxy-phenyl]-morpholin-4-yl-methanone] showed a Ki of 1.46 nM.

Turning to `CCNc1nc(Nc2cc(OC)c(C(=O)N(C)CC(C)(C)O)cc2F)ncc1C(F)(F)F` [Compound 30, 4-(4-Ethylamino-5-trifluoromethyl-pyrimidin-2-ylamino)-5-fluoro-N-(2-hydroxy-2-methyl-propyl)-2-methoxy-N-methyl-benzamide], the Ki was 7.07 nM.

Consider `CCNc1nc(Nc2cc(C)c(C(=O)N3CC[C@H](F)C3)cc2Cl)ncc1C#N` [Compound 107, 2-[2-Chloro-4-((S)-3-fluoro-pyrrolidine-1-carbonyl)-5-methyl-phenylamino]-4-ethylamino-pyrimidine-5-carbonitrile], for which the affinity, expressed as Ki, was 9.12 nM.

For `CCNc1nc(Nc2cc(C)c(C(=O)N3CCOCC3)cc2F)ncc1C(F)(F)F` [Compound 103, [4-(4-Ethylamino-5-trifluoromethyl-pyrimidin-2-ylamino)-5-fluoro-2-methyl-phenyl]-morpholin-4-yl-methanone], the Ki came to 1.23 nM.

Take `CNc1nc(Nc2cc(OC)c(C(=O)N3CCOCC3)c(OC)c2Cl)ncc1C(F)(F)F` [Compound 82, [3-Chloro-2,6-dimethoxy-4-(4-methylamino-5-trifluoromethyl-pyrimidin-2-ylamino)-phenyl]-morpholin-4-yl-methanone]: the inhibitory constant (Ki) turned out to be 2.82 nM.

Molecule `CCNc1nc(Nc2cc(F)c(C(=O)N3C[C@H]4CC[C@@H](C3)O4)cc2OC)ncc1C(F)(F)F` [Compound 6, [4-(4-Ethylamino-5-trifluoromethyl-pyrimidin-2-ylamino)-2-fluoro-5-methoxy-phenyl]-(1S,5R)-8-oxa-3-aza-bicyclo[3.2.1]oct-3-yl-methanone] yielded a Ki of 0.501 nM.

The molecule `CNc1nc(Nc2cc(C)c(C(=O)N3CCOCC3)cc2OCCF)ncc1C(F)(F)F` [Compound 84, [5-(2-Fluoro-ethoxy)-2-methyl-4-(4-methylamino-5-trifluoromethyl-pyrimidin-2-ylamino)-phenyl]-morpholin-4-yl-methanone] displayed a Ki of 2.34 nM.

The molecule `CCNc1nc(Nc2ccc(C(=O)N3CC[C@H](F)C3)cc2F)ncc1C#N` [Compound 98, 4-Ethylamino-2-[2-fluoro-4-((S)-3-fluoro-pyrrolidine-1-carbonyl)-phenylamino]-pyrimidine-5-carbonitrile] returned a Ki of 17.5 nM.

Consider `CCNc1nc(Nc2ccc(C(=O)N3CCOCC3)c(F)c2F)ncc1C(F)(F)F` [Compound 41, [4-(4-Ethylamino-5-trifluoromethyl-pyrimidin-2-ylamino)-2,3-difluoro-phenyl]-morpholin-4-yl-methanone], for which the affinity corresponds to a Ki of 2.99 nM.

`CNc1nc(Nc2cc(OC)c(C(=O)N3CCN(CCOC)CC3)cc2Cl)ncc1C(F)(F)F` [Compound 1, [5-Chloro-2-methoxy-4-(4-methylamino-5-trifluoromethyl-pyrimidin-2-ylamino)-phenyl]-[4-(2-methoxy-ethyl)-piperazin-1-yl]-methanone] displayed a Ki of 4 nM.

`CCNc1nc(Nc2cc(F)c(C(=O)NC3(CO)CC3)cc2OC)ncc1C(F)(F)F` [Compound 114, 4-(4-Ethylamino-5-trifluoromethyl-pyrimidin-2-ylamino)-2-fluoro-N-(1-hydroxymethyl-cyclopropyl)-5-methoxy-benzamide] gave a Ki of 0.559 nM.

Regarding `CNc1nc(Nc2cc(F)c(C(=O)N3CCOCC3)cc2C)ncc1C(F)(F)F` [Compound 92, [2-Fluoro-5-methyl-4-(4-methylamino-5-trifluoromethyl-pyrimidin-2-ylamino)-phenyl]-morpholin-4-yl-methanone], the affinity corresponds to a Ki of 3.64 nM.

Consider `CCOc1cc(C(=O)N2CCOCC2)c(C)cc1Nc1ncc(C(F)(F)F)c(NC)n1` [Compound 100, [5-Ethoxy-2-methyl-4-(4-methylamino-5-trifluoromethyl-pyrimidin-2-ylamino)-phenyl]-morpholin-4-yl-methanone], for which affinity was put at a Ki of 1.05 nM.

`COc1cc(C(=O)NCC(C)(C)O)c(F)cc1Nc1ncc(C(F)(F)F)c(NC2CC2)n1` [Compound 45, 4-(4-Cyclopropylamino-5-trifluoromethyl-pyrimidin-2-ylamino)-2-fluoro-N-(2-hydroxy-2-methyl-propyl)-5-methoxy-benzamide] registered a Ki of 0.31 nM.

Turning to `CNc1nc(Nc2cc(OC(F)F)c(C(=O)N3CCOCC3)cc2Cl)ncc1C(F)(F)F` [Compound 79, [5-Chloro-2-difluoromethoxy-4-(4-methylamino-5-trifluoromethyl-pyrimidin-2-ylamino)-phenyl]-morpholin-4-yl-methanone], the Ki was 27.1 nM.

In the case of `CNc1nc(Nc2cc(F)c(C(=O)N3CCOCC3)cc2Cl)ncc1C(F)(F)F` [Compound 69, [5-Chloro-2-fluoro-4-(4-methylamino-5-trifluoromethyl-pyrimidin-2-ylamino)-phenyl]-morpholin-4-yl-methanone], the Ki turned out to be 9.31 nM.

Molecule `CNc1nc(Nc2cc(OC)c(C(=O)NCC(C)(C)O)cc2F)ncc1C(F)(F)F` [Compound 27, 5-Fluoro-N-(2-hydroxy-2-methyl-propyl)-2-methoxy-4-(4-methylamino-5-trifluoromethyl-pyrimidin-2-ylamino)-benzamide] registered a Ki of 11.7 nM.

For `COc1cc(C(=O)N2CCOCC2)c(F)cc1Nc1ncc(C(F)(F)F)c(OC)n1` [Compound 50, [2-Fluoro-5-methoxy-4-(4-methoxy-5-trifluoromethyl-pyrimidin-2-ylamino)-phenyl]-morpholin-4-yl-methanone], the Ki was 33.3 nM.

`CCNc1nc(Nc2cc(OC)c(C(=O)N3CC[C@H](F)C3)cc2Cl)ncc1C#N` [Compound 117, 2-[2-Chloro-4-((S)-3-fluoro-pyrrolidine-1-carbonyl)-5-methoxy-phenylamino]-4-ethylamino-pyrimidine-5-carbonitrile] registered an inhibitory constant (Ki) of 12.7 nM.

`CCNc1nc(Nc2ccc(C(=O)NC(C)(C)C)cc2OC)ncc1C(F)(F)F` [Compound 21, N-tert-Butyl-4-(4-ethylamino-5-trifluoromethyl-pyrimidin-2-ylamino)-3-methoxy-benzamide] returned a Ki of 0.371 nM.

As to `COc1cc(C(=O)N2CCOCC2)c(F)cc1Nc1ncc(C(F)(F)F)c(NC2CC2)n1` [Compound 25, [4-(4-Cyclopropylamino-5-trifluoromethyl-pyrimidin-2-ylamino)-2-fluoro-5-methoxy-phenyl]-morpholin-4-yl-methanone], the affinity corresponds to a Ki of 0.507 nM.

As to `CNc1nc(Nc2cc(Cl)c(C(=O)N3CCOCC3)cc2C)ncc1C(F)(F)F` [Compound 126, [2-Chloro-5-methyl-4-(4-methylamino-5-trifluoromethyl-pyrimidin-2-ylamino)-phenyl]-morpholin-4-yl-methanone], affinity was put at a Ki of 6.79 nM.

Turning to `CCNc1nc(Nc2ccc(C(=O)N3CC[C@H](F)C3)cc2Cl)ncc1C#N` [Compound 108, 2-[2-Chloro-4-((S)-3-fluoro-pyrrolidine-1-carbonyl)-phenylamino]-4-ethylamino-pyrimidine-5-carbonitrile], the Ki was 28.9 nM.

`CNc1nc(Nc2cc(OC)c(C(=O)N3CCCC3)cc2OCCF)ncc1C(F)(F)F` [Compound 85, [5-(2-Fluoro-ethoxy)-2-methoxy-4-(4-methylamino-5-trifluoromethyl-pyrimidin-2-ylamino)-phenyl]-pyrrolidin-1-yl-methanone] came in with a Ki of 4.72 nM.

Molecule `CNc1nc(Nc2cc(OC)c(C(=O)N3CCCC3)cc2OCF)ncc1C(F)(F)F` [Compound 90, [5-Fluoromethoxy-2-methoxy-4-(4-methylamino-5-trifluoromethyl-pyrimidin-2-ylamino)-phenyl]-pyrrolidin-1-yl-methanone] had a Ki of 3.2 nM.

Regarding `CCNc1nc(Nc2cc(OC)c(C(=O)N3CCC(F)(F)C3)cc2OCF)ncc1C(F)(F)F` [Compound 66, (3,3-Difluoro-pyrrolidin-1-yl)-[4-(4-ethylamino-5-trifluoromethyl-pyrimidin-2-ylamino)-5-fluoromethoxy-2-methoxy-phenyl]-methanone], the inhibition constant (Ki) stood at 0.388 nM.

`CCNc1nc(Nc2cc(OC)c(C(=O)NCC(C)(C)O)cc2F)ncc1C(F)(F)F` [Compound 28, 4-(4-Ethylamino-5-trifluoromethyl-pyrimidin-2-ylamino)-5-fluoro-N-(2-hydroxy-2-methyl-propyl)-2-methoxy-benzamide] had a Ki of 6.42 nM.

Consider `CCNc1nc(Nc2cc(OCF)c(C(=O)N3CCCC3)cc2F)ncc1C(F)(F)F` [Compound 121, [4-(4-Ethylamino-5-trifluoromethyl-pyrimidin-2-ylamino)-5-fluoro-2-fluoromethoxy-phenyl]-pyrrolidin-1-yl-methanone], for which the affinity corresponds to a Ki of 3.43 nM.

For orientation: Ki means a dissociation constant, usually derived from enzyme kinetics or from competition with a known ligand. High values mean a looser hold on the target, low ones a stronger hold on the target.

Source of the values: US8809331B2 (Genentech, Inc., priority 2011, dated 2014).
